Data set [1] deals with T1, isolated kinase domain of the human c-kit receptor (Homo sapiens, UniProt P10721).
T1 construct: isolated kinase domain of the human c-kit receptor; purchased ProQinase lot SP005
Briefly: c-Kit Fluorescence Polarization Kinase Assay. It counts as biochemical. As to conditions: uncertainty ±10%; read-out: ckit IC50. The protocol: c-Kit Fluorescence Polarization Kinase Assay
The compounds of the present invention are also specific inhibitors of c-Kit. Selection of preferred compounds of Formula I for use as c-Kit inhibitors was performed in the following manner using an in vitro kinase assay to measure inhibition of the isolated kinase domain of the human c-kit receptor in a fluorescence polarization (FP) protocol. The c-kit assay utilized the fluorescein-labeled phosphopeptide and the anti-phosphotyrosine antibody included in the Panvera Phospho-Tyrosine Kinase Kit (Green) supplied by Invitrogen. When c-kit phosphorylated the poly Glu4Tyr, the fluorescein-labeled phosphopeptide was displaced from the anti-phosphotyrosine antibody by the phosphorylated poly Glu4Tyr, thus decreasing the FP value. The c-kit kinase reaction was incubated at room temperature for 45 minutes under the following conditions: 1 nM c-kit (ProQinase, lot SP005), 100 ug/mL poly Glu4Tyr, 50 uM ATP, 5 mM MgCl2, 1 mM DTT, 0.01% Tween-20, 1% DMSO or compound in […], pH 7.5. The kinase reaction was stopped with the addition of EDTA. The fluorescein-labeled phosphopeptide and the anti-phosphotyrosine antibody were added and incubated for 30 minutes at room temperature and fluorescence polarization was read. Data points were an average of triplicate samples. Inhibition and IC50 data analysis were done with GraphPad Prism using a non-linear regression fit with a multiparamater, sigmoidal dose-response (variable slope) equation.
In general terms: Polarisation of emitted light reports the rotation of a fluorescent probe.

In data set [2] the test system is FLT3. Briefly: FLT3 phosphorylation in MV4-11 tumors from treated mice (immunoblot). It counts as in vivo, nude mice. The following applies: single dose 100 mg/kg po, tumors harvested 2 hours later. The protocol:
To establish further that compounds of the present invention reached the expected target in tumor tissue, the level of FLT3 phosphorylation in tumor tissue obtained from vehicle- and compound-treated mice was measured. Results for Compound 73 and Compound 74 are shown in FIG. 3 and FIG. 4, respectively. For this pharmacodynamic study, a sub-set of 10 mice from the vehicle-treated control group were randomized into two groups of 5 mice each and then treated with another dose of vehicle or compound (100 mg/kg, po). Tumors were harvested 2 hours later and snap frozen for assessment of FLT3 phosphorylation by immunobloting.
Harvested tumors were processed for immunoblot analysis of FLT3 phosphorylation in the following manner: 100 mg of tumor tissue was dounce homogenized in lysis buffer (50 mM Hepes, 150 mM NaCl, 10% Glycerol, 1% Triton-X-100, 10 mM NaF, 1 mM EDTA, 1.5 mM MgCl2, 10 mM NaPyrophosphate) supplemented with phosphatase (Sigma Cat#P2850) and protease inhibitors (Sigma Cat #P8340). Insoluble debris was removed by centrifugation at 1000×g for 5 minutes at 4° C. Cleared lysates ([…] of total potein at 10 mg/ml in lysis buffer) were incubated with 10 μg of agarose conjugated anti-FLT3 antibody, clone C-20 (Santa Cruz cat # sc-479ac), for 2 hours at 4° C. with gentle agitation. […]

A short description of data set [3]: Tolerability in the MV4-11 xenograft study (body weight, overt clinical signs). It counts as in vivo, nude mice. The following applies: 11-day treatment, doses up to 200 mg/kg/day. The protocol: (§1) Female athymic nude mice weighing no less than 20-21 grams were inoculated subcutaneously in the left inguinal region of the thigh with 5×10^6 tumor cells in a delivery volume of 0.2 mL. For regression studies, the tumors were allowed to grow to a pre-determined size prior to initiation of dosing.

The target of data set [4] is T2, TrkB (Homo sapiens, UniProt Q16620).
T2 construct: purchased Upstate 14-507M
T2 sequence (Q16620 32-822): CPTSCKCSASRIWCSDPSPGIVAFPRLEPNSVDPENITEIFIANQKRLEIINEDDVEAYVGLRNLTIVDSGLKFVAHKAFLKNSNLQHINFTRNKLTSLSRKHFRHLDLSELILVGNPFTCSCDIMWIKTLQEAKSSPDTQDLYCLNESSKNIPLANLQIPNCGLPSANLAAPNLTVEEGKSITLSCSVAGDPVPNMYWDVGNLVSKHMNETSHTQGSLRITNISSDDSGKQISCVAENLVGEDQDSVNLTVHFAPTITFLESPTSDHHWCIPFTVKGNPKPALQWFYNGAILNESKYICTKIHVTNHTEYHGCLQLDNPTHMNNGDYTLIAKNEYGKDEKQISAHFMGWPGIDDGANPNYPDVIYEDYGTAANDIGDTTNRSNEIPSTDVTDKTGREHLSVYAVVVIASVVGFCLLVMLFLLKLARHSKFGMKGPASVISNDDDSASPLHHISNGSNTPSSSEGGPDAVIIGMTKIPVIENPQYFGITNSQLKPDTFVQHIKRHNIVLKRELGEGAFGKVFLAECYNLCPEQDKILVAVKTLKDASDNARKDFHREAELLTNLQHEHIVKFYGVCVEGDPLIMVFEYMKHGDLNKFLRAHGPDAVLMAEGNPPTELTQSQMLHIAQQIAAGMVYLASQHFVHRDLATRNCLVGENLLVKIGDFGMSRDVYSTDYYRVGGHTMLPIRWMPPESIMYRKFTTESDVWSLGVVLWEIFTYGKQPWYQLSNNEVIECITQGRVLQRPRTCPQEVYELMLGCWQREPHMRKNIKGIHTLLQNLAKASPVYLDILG
Briefly: Trk B Fluorescence Polarization Kinase Assay. It counts as biochemical. The following applies: uncertainty ±10%. The method, boiled down:
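The TrkB kinase reaction (50 nM enzyme, 20 ug/mL poly Glu4Tyr, 150 uM ATP, 5 mM MgCl2, 1% DMSO) ran 30 minutes at room temperature and was stopped with EDTA. Phosphorylation was detected by fluorescence-polarization displacement of a fluorescein phosphopeptide from an anti-phosphotyrosine antibody. IC50 came from a variable-slope sigmoidal fit of triplicates.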

In data set [5] the test system is MV4-11 tumor xenografts. Briefly: nude mouse MV4-11 human tumor xenograft regression model. It counts as in vivo, nude mice. The following applies: for decrease of mean tumor volume compared to vehicle-treated group: Day 11; for reduction of final tumor weight compared to vehicle-treated group: eleven days oral dosing. The protocol:
Female athymic nude mice (CD-1, nu/nu, 9-10 weeks old) were obtained from Charles River Laboratories (Wilmington, Mass.) and were maintained according to NIH standards. All mice were group housed (5 mice/cage) under clean-room conditions in sterile micro-isolator cages on a 12-hour light/dark cycle in a room maintained at 21-22° C. and 40-50% humidity. Mice were fed irradiated standard rodent diet and water ad libitum. All animals were housed in a Laboratory Animal Medicine facility that is fully accredited by the American Association for Assessment and Accreditation of Laboratory Animal Care (AAALAC). All procedures involving animals were conducted in compliance with the NIH Guide for the Care and Use of Laboratory Animals and all protocols were approved by an Internal Animal Care and Use Committee (IACUC).
The human leukemic MV4-11 cell line was obtained from the American Type Culture Collection (ATCC Number: CRL-9591) and propagated in RPMI medium containing 10% FBS (fetal bovine serum) and 5 ng/mL GM-CSF (R&D Systems). MV4-11 cells are derived from a patient with childhood acute myelomonocytic leukemia with an 11q23 translocation resulting in a MLL gene rearrangement and containing an FLT3-ITD mutation (AML subtype M4)(1,2). MV4-11 cells express constitutively active phosphorylated FLT3 receptor as a result of a naturally occurring FLT3/ITD mutation. Strong anti-tumor activity against MV4-11 tumor growth in the nude mouse tumor xenograft model is anticipated to be a desirable quality of the invention.
as §1
(See FIG. 2). […] Percent Inhibition was calculated versus the mean tumor weight in the vehicle-treated control group.
On the technique in general: Xenograft models place foreign cells or tissue in a host animal.

T1 sequence (P10721 589-937 limits assumed): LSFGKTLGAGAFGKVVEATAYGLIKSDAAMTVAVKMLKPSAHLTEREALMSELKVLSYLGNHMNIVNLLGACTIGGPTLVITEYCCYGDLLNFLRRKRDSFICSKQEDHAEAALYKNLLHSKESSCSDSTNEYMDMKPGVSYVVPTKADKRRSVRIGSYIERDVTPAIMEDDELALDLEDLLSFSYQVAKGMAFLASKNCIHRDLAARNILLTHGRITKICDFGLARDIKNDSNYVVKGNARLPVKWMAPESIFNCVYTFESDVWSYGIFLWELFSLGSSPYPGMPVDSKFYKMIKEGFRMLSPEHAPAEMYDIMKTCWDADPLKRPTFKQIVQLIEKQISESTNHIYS

As for `CN1CCN(CCCOc2ccc3c(C4CCN(C(=O)Nc5ccc(N6CCOCC6)cc5)CC4)ncnc3c2)CC1` [Compound 73, 4-{7-[3-(4-Methyl-piperazin-1-yl)-propoxy]-quinazolin-4-yl}-piperidine-1-carboxylic acid (4-morpholin-4-yl-phenyl)-amide], in data set [1], the 50% inhibitory concentration (IC50) (usually the concentration that inhibits the measured activity by half) stood at 40 nM. For the same compound, in data set [2], the “level of FLT3 phosphorylation in MV4-11 tumors compared to vehicle-treated mice” value is “biologically significant reduction”. In data set [3], the “adverse effects on body weight” value was “no significant adverse effects on body weight” and the overt toxicity entry is recorded as “No overt toxicity”. The compound also had an IC50 in data set [4] above 20000 nM. In addition, in data set [5] (high dose), the “final tumors in some mice” value is “regressed to non-palpable, non-detectable tumors”.

In the case of `O=C1CCCN1CCOc1ccc2c(C3CCN(C(=O)Nc4ccc(N5CCCC5)cc4)CC3)ncnc2c1` [Compound 74, 4-{7-[2-(2-Oxo-pyrrolidin-1-yl)-ethoxy]-quinazolin-4-yl}-piperidine-1-carboxylic acid (4-pyrrolidin-1-yl-phenyl)-amide], the figures for the IC50 in data set [1] and in data set [4] were 13 nM and 3300 nM, respectively. For the same compound, in data set [2], the “level of FLT3 phosphorylation in MV4-11 tumors compared to vehicle-treated mice” value was “biologically significant reduction”. Moreover, the “adverse effects on body weight” value in data set [3] is “no significant adverse effects on body weight”. The overt toxicity result in data set [3] is on record as “No overt toxicity”. The entries for the “decrease of mean tumor volume compared to vehicle-treated group” value in data set [5] (10 mg/kg b.i.d. oral), in data set [5] (30 mg/kg b.i.d. oral) and in data set [5] (100 mg/kg b.i.d. oral) were 22%, 54% and 96%, respectively. The entries for the “reduction of final tumor weight compared to vehicle-treated group” value in data set [5] (10 mg/kg), in data set [5] (30 mg/kg) and in data set [5] (100 mg/kg) were 12%, 43% and 91%, respectively. Besides, the “tumor regression: decrease versus starting mean tumor volume on Day 1” value in data set [5] (100 mg/kg b.i.d. oral) is reported as 79%.

Consider `O=C1CCCN1CCOc1ccc2c(C3CCN(C(=O)Nc4ccc(N5CCOCC5)nc4)CC3)ncnc2c1` [Compound 83, 4-{7-[2-(2-Oxo-pyrrolidin-1-yl)-ethoxy]-quinazolin-4-yl}-piperidine-1-carboxylic acid (6-morpholin-4-yl-pyridin-3-yl)-amide], for which the IC50 came to 25 nM in data set [1] and 8500 nM in data set [4].

`CS(=O)(=O)NCCCOc1ccc2c(C3CCN(C(=O)Nc4ccc(OC5CCCC5)nc4)CC3)ncnc2c1` [Compound 88, 4-[7-(3-Methanesulfonylamino-propoxy)-quinazolin-4-yl]-piperidine-1-carboxylic acid (6-cyclopentyloxy-pyridin-3-yl)-amide]: the results for the IC50 in data set [1] and in data set [4] were 11 nM and 400 nM, respectively.

`O=C1CCCN1CCCOc1ccc2c(C3CCN(C(=O)Nc4ccc(N5CCCC5)nc4)CC3)ncnc2c1` [Compound 89, 4-{7-[3-(2-Oxo-pyrrolidin-1-yl)-propoxy]-quinazolin-4-yl}-piperidine-1-carboxylic acid (6-pyrrolidin-1-yl-pyridin-3-yl)-amide]: the figures for the IC50 in data set [1] and in data set [4] were 13 nM and 2700 nM, respectively.

(Values after patent US8071768B2, “Alkylquinoline and alkylquinazoline kinase modulators” (Janssen Pharmaceutica, N.V., priority 2005, dated 2011).)
